Results on seven molecules are retold here after paper PMC11992087, “A Bacteroides thetaiotaomicron genetic locus encodes activities consistent with mucin O-glycoprotein processing and N-acetylgalactosamine metabolism” (Nature Communications, 2025).

Some results are limits rather than exact numbers.

Data set [1] concerns the target T1, BT4246-SusD-like (Bacteroides thetaiotaomicron, UniProt Q89ZX5).
T1 sequence (Q89ZX5 25-642): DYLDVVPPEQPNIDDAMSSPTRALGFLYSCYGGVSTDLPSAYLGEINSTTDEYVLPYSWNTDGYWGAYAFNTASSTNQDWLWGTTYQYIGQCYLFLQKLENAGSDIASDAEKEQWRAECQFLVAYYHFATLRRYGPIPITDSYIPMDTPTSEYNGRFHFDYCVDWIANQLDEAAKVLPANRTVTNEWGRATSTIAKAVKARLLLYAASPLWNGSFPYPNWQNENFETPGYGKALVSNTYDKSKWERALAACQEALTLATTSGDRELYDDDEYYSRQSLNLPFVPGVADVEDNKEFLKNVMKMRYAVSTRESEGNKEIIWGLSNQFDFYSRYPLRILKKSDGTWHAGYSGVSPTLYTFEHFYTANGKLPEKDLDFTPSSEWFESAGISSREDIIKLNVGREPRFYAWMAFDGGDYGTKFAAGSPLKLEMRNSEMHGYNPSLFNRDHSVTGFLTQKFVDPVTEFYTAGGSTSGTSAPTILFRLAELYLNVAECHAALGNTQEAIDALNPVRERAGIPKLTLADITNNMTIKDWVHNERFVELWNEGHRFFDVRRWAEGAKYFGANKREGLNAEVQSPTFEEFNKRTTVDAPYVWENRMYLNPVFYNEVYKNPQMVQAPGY
Nature of the data set: X-ray crystal structure, […] Å. The class given is binding. Further details: gene BT_4246; residues 25-642, His-tag removed by TEV protease, from E. coli (crystal). Conditions: crystals soaked in 4% PGMIII O-glycan oligosaccharides; only the terminal Gal of an undefined oligosaccharide is modelled, not free galactose.

Data set [2] addresses T2, BT4244-CBM32 (Bacteroides thetaiotaomicron, UniProt Q89ZX7).
T2 construct: gene BT_4244
T2 sequence (Q89ZX7 145-285 limits assumed): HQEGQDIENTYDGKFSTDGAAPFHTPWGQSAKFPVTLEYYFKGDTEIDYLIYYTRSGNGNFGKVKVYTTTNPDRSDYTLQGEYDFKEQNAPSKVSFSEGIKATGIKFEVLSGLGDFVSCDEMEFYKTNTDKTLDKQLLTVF
Description: ITC. It counts as binding. Conditions: 20 mM Tris-HCl pH 7.5, 25 °C; single-site model.

The target in data set [3] is T1, BT4246-SusD-like. Description: ITC. The class given is binding. On the set-up: gene BT_4246; mature form, signal peptide removed, His-tagged, from E. coli (ITC). The following applies: 20 mM Tris-HCl pH 7.5, 25 °C; single-site model.
Data set [4] concerns the target T3, BT4245-SGBP (Bacteroides thetaiotaomicron, UniProt Q89ZX6).
T3 construct: gene BT_4245; full-length mature protein, signal peptide removed, His-tagged, from E. coli
T3 sequence (Q89ZX6 21-430): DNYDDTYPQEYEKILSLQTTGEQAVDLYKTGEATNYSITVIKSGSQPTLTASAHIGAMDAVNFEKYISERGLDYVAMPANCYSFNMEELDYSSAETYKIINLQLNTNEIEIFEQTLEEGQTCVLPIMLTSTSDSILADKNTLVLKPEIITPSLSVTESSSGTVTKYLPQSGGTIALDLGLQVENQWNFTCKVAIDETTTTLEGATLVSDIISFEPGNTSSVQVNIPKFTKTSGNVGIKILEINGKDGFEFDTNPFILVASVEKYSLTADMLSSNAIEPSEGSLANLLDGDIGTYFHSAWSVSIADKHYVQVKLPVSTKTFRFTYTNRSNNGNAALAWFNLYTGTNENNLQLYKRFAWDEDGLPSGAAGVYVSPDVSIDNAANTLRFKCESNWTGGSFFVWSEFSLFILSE
Nature of the data set: ITC. It counts as binding. The following applies: 20 mM Tris-HCl pH 7.5, 25 °C; single-site model.

Substrate in data set [5]: CC(=O)N[C@H]1[C@@H](Oc2ccc([N+](=O)[O-])cc2)O[C@H](CO)[C@H](O)[C@@H]1O
Nature of the data set: 4-nitrophenol release at A400. The class given is biochemical, Bacteroides thetaiotaomicron. The following applies: 20 mM MOPS pH 7.0, 37 °C, 0.4 µM enzyme. On the procedure: 4-nitrophenol release at A400 on BT4243-GH109 | between GalNAc and serine in Tn antigen as well as PNP-α-GalNAc | enzyme (final) was added to substrate (PNP-α-GalNAc or PNP-β-GalNAc, respectively)

As to `OC[C@H]1OC(O)[C@H](O)[C@@H](O)[C@H]1O` (some centres unmarked) [terminal Gal from a mucin O-glycan oligosaccharide], the “X-ray crystal structure, 1.8 Å” value in data set [1] is reported as “In the resulting structure, unambiguous electron density was observed for a β-linked Gal”.

`CC(=O)N[C@H]1C(O)O[C@H](CO)[C@H](O)[C@@H]1O[C@@H]1O[C@H](CO)[C@H](O)[C@H](O)[C@H]1O` (some centres unmarked) [core 1 disaccharide]: the Ka in data set [2] was 0.20 (±0.01) × 10^4; in data set [3] it was 0.45 (±0.03) × 10^4.

In the case of `CC(=O)N[C@H]1C(O)O[C@H](CO)[C@H](O)[C@@H]1O` (some centres unmarked) [GalNAc], the Ka in data set [2] was 0.40 (±0.03) × 10^4; in data set [4] it was 1.20 (±0.2) × 10^4.

`CC(=O)N[C@H]1C(O)O[C@H](CO)[C@@H](O)[C@@H]1O[C@@H]1O[C@H](CO)[C@H](O)[C@H](O)[C@H]1O` (some centres unmarked) [lacto-N-biose]: in data set [3], the Ka is 0.13 (±0.07) × 10^4.

On to `OC[C@H]1OC(O)[C@H](O)[C@@H](O)[C@H]1O` (some centres unmarked) [Gal], for which the figures for the Ka in data set [2] and in data set [4] were 0.16 (±0.01) × 10^4 and > 0.1 × 10^4, respectively.

For `OC[C@H]1O[C@@H](O[C@H]2[C@H](O)[C@@H](O)C(O)O[C@@H]2CO)[C@H](O)[C@@H](O)[C@H]1O` (some centres unmarked) [lactose], in data set [2], the Ka is on record as 0.23 (±0.00) × 10^4.

B1: BT4243-GH109 (Bacteroides thetaiotaomicron VPI-5482) (protein)
chain: QKTKAKFSPIKVETPARPANQQDVIQLVTPKLETVRVGFIGLGMRGPGAVERWTHIPGTQIVALCDLLPERVENAQKILEKAGLPKAASYAGDEKAWKKLCERDDIDVVYIATDWKHHADMGVYAMEHGKHVAIEVPAAMTLDEIWKLINTSEKTRKHCMQLENCVYDFFELTSLNMAQQGVFGEVLHVEGAYIHNLEDFWPYYWNNWRMDYNQKHRGDVYATHGMGPACQVLNIHRGDRMKTLVAMDTKAVNGPAYIKKSTGKEVKDFQNGDQTTTLIRTENGKTMLIQHNVMTPRPYSRMYQVVGADGYASKYPIEEYCLRPTQVDSNDVPNHEKLNAHGSVSEDVKKALMAKYKDPIHKELEETAKKVGGHGGMDYIMDYRLVYCLRNGLPLDMDVYDLAEWCCMAELTRLSIENGSAPVEVPDFTRGGWNKVQGYRHAFAE
notes: mature form, signal peptide removed, His-tagged, from E. coli
Consider B1, for which, in data set [5], the Km is given as 0.03 (±0.005) mM and the kcat was 2.1 (±0.3) s-1.
